Assays:
Conditions in all cases: 72 h
MDA-MB-453 [1] = system: MDA-MB-453
Protocol: (§1)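 Drug sensitivity and resistance testing (DSRT) of breast cancer cell lines in 384-well plates, 5 concentrations in 10-fold dilutions over a compound-specific 10,000-fold range. After 72 h, cytotoxicity was read by CellTox Green fluorescence and viability by CellTiter-Glo luminescence (multiplexed), normalised to DMSO and benzethonium chloride controls. EC50 is the inflection point of the fitted dose-response curve (bottom asymptote free, so it can be relative for partial curves) and is censored at the highest tested concentration. Rows with DSS 0 (no meaningful response) were excluded.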

CAL-85-1 [2] = system: CAL-85-1
Protocol: as §1

HDQ-P1 [3] = system: HDQ-P1
Protocol: as §1

CAL-51 [4] = system: CAL-51
Protocol: as §1

MDA-MB-453 [5] = system: MDA-MB-453; remark: listed apart in the source
Summary of the method: (§2)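 Breast cancer cell lines in 20 µl suspension were added to 384-well plates already holding compound at 5 concentrations, spaced in 10-fold steps across a compound-specific 10,000-fold range, and incubated for 72 h. CellTox Green fluorescence (485/520 nm) was read first to measure cell death, followed by CellTiter-Glo luminescence for viability after 10 min at room temperature. Each plate was normalised to 0.1 % DMSO and a positive kill control. EC50 values came from dose-response curve fits and were censored at the top concentration.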

CAL-85-1 [6] = system: CAL-85-1; remark: listed apart in the source
Summary of the method: as §2

HDQ-P1 [7] = system: HDQ-P1; remark: listed apart in the source
Summary of the method: as §2

SK-BR-3 = system: SK-BR-3
Summary of the method: as §2

CAL-51 [8] = system: CAL-51; remark: listed apart in the source
Summary of the method: as §2

MCF-10A [9] = system: MCF-10A
Summary of the method: as §2

MFM-223 [10] = system: MFM-223
Protocol: as §1

MDA-MB-468 [11] = system: MDA-MB-468
Protocol: as §1

MDA-MB-436 [12] = system: MDA-MB-436
Protocol: as §1

Hs578T [13] = system: Hs578T
Protocol: as §1

BT-474 [14] = system: BT-474
Protocol: as §1

MCF-10A [15] = system: MCF-10A; remark: listed apart in the source
Protocol: as §1

HCC1937 [16] = system: HCC1937
Protocol: as §1

HCC1599 [17] = system: HCC1599
Protocol: as §1

MDA-MB-453 [18] = system: MDA-MB-453; remark: listed apart in the source
Summary of the method: (§3)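 EC50 is the value from a fitted percent-inhibition dose-response curve, censored at the highest concentration, and rows with zero drug sensitivity score were not kept. The underlying assay seeded breast cancer cell lines in 20 µl onto 384-well plates pre-loaded with compound in 5 µl medium for 72 h. Viability was then read by CellTiter-Blue fluorescence at 560/590 nm after 2 h at 37 °C, with each plate normalised to vehicle and a positive kill control.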

CAL-85-1 [19] = system: CAL-85-1; remark: listed apart in the source
Summary of the method: as §3

HDQ-P1 [20] = system: HDQ-P1; remark: listed apart in the source
Summary of the method: as §3

DU-4475 [21] = system: DU-4475
Summary of the method: as §3

CAL-148 [22] = system: CAL-148
Summary of the method: as §3

CAL-51 [23] = system: CAL-51; remark: listed apart in the source
Summary of the method: as §3

MDA-MB-231 [24] = system: MDA-MB-231
Summary of the method: as §2

BT-549 [25] = system: BT-549
Summary of the method: as §2

MFM-223 [26] = system: MFM-223; remark: listed apart in the source
Summary of the method: as §2

MDA-MB-468 [27] = system: MDA-MB-468; remark: listed apart in the source
Summary of the method: as §2

MDA-MB-436 [28] = system: MDA-MB-436; remark: listed apart in the source
Summary of the method: as §2

CAL-120 [29] = system: CAL-120
Summary of the method: as §2

HCC1143 [30] = system: HCC1143
Summary of the method: as §2

Hs578T [31] = system: Hs578T; remark: listed apart in the source
Summary of the method: as §2

BT-474 [32] = system: BT-474; remark: listed apart in the source
Summary of the method: as §2

DU-4475 [33] = system: DU-4475; remark: listed apart in the source
Summary of the method: as §2

CAL-148 [34] = system: CAL-148; remark: listed apart in the source
Summary of the method: as §2

HCC1937 [35] = system: HCC1937; remark: listed apart in the source
Summary of the method: as §2

HCC1599 [36] = system: HCC1599; remark: listed apart in the source
Summary of the method: as §2

MDA-MB-231 [37] = system: MDA-MB-231; remark: listed apart in the source
Summary of the method: as §3

BT-549 [38] = system: BT-549; remark: listed apart in the source
Summary of the method: as §3

MFM-223 [39] = system: MFM-223; remark: listed apart in the source
Summary of the method: as §3

MDA-MB-436 [40] = system: MDA-MB-436; remark: listed apart in the source
Summary of the method: as §3

CAL-120 [41] = system: CAL-120; remark: listed apart in the source
Summary of the method: as §3

HCC1143 [42] = system: HCC1143; remark: listed apart in the source
Summary of the method: as §3

Hs578T [43] = system: Hs578T; remark: listed apart in the source
Summary of the method: as §3

BT-474 [44] = system: BT-474; remark: listed apart in the source
Summary of the method: as §3

HCC1599 [45] = system: HCC1599; remark: listed apart in the source
Summary of the method: as §3

## C=CC(=O)N1CCC[C@@H](n2nc(-c3ccc(Oc4ccccc4)cc3)c3c(N)ncnc32)C1 [Ibrutinib]
MDA-MB-453 [1]
  EC50, CellTox Green: 943 nM
CAL-85-1 [2]
  EC50, CellTox Green: 416 nM
HDQ-P1 [3]
  EC50, CellTox Green: > 1000 nM
CAL-51 [4]
  EC50, CellTox Green: > 1000 nM
MDA-MB-453 [5]
  EC50, CellTiter-Glo: 10.5 nM
CAL-85-1 [6]
  EC50, CellTiter-Glo: 493 nM
HDQ-P1 [7]
  EC50, CellTiter-Glo: 168 nM
SK-BR-3
  EC50, CellTiter-Glo: 11.9 nM
CAL-51 [8]
  EC50, CellTiter-Glo: 415 nM
MCF-10A [9]
  EC50, CellTiter-Glo: 198 nM

## O=C(Cc1ccc(-c2ccc(OCCN3CCOCC3)cc2)cn1)NCc1ccccc1 [KX2-391]
MFM-223 [10]
  EC50, CellTox Green: 328 nM
MDA-MB-468 [11]
  EC50, CellTox Green: 19.4 nM
MDA-MB-436 [12]
  EC50, CellTox Green: > 10000 nM
CAL-85-1 [2]
  EC50, CellTox Green: 22.1 nM
HDQ-P1 [3]
  EC50, CellTox Green: 4110 nM
Hs578T [13]
  EC50, CellTox Green: 523 nM
BT-474 [14]
  EC50, CellTox Green: 307 nM
CAL-51 [4]
  EC50, CellTox Green: 23.8 nM
MCF-10A [15]
  EC50, CellTox Green: 59.8 nM
HCC1937 [16]
  EC50, CellTox Green: 5000 nM
HCC1599 [17]
  EC50, CellTox Green: 267 nM
MDA-MB-453 [18]
  EC50, CellTiter-Blue viability: 35.1 nM
CAL-85-1 [19]
  EC50, CellTiter-Blue viability: 23.1 nM
HDQ-P1 [20]
  EC50, CellTiter-Blue viability: 53.6 nM
DU-4475 [21]
  EC50, CellTiter-Blue viability: 46 nM
CAL-148 [22]
  EC50, CellTiter-Blue viability: 47.1 nM
CAL-51 [23]
  EC50, CellTiter-Blue viability: 63 nM
MDA-MB-231 [24]
  EC50, CellTiter-Glo: 75.9 nM
BT-549 [25]
  EC50, CellTiter-Glo: 44.7 nM
MFM-223 [26]
  EC50, CellTiter-Glo: 83.9 nM
MDA-MB-468 [27]
  EC50, CellTiter-Glo: 44.2 nM
MDA-MB-453 [5]
  EC50, CellTiter-Glo: 55.6 nM
MDA-MB-436 [28]
  EC50, CellTiter-Glo: 51.4 nM
CAL-85-1 [6]
  EC50, CellTiter-Glo: 23 nM
HDQ-P1 [7]
  EC50, CellTiter-Glo: 26.5 nM
SK-BR-3
  EC50, CellTiter-Glo: 20.1 nM
CAL-120 [29]
  EC50, CellTiter-Glo: 57.1 nM
HCC1143 [30]
  EC50, CellTiter-Glo: 28.2 nM
Hs578T [31]
  EC50, CellTiter-Glo: 49.6 nM
BT-474 [32]
  EC50, CellTiter-Glo: 70 nM
DU-4475 [33]
  EC50, CellTiter-Glo: 34.7 nM
CAL-148 [34]
  EC50, CellTiter-Glo: 35.8 nM
CAL-51 [8]
  EC50, CellTiter-Glo: 16.8 nM
MCF-10A [9]
  EC50, CellTiter-Glo: 29.6 nM
HCC1937 [35]
  EC50, CellTiter-Glo: 34.5 nM
HCC1599 [36]
  EC50, CellTiter-Glo: 61.9 nM
MDA-MB-231 [37]
  EC50, CellTiter-Blue viability: 43.1 nM
BT-549 [38]
  EC50, CellTiter-Blue viability: 37.8 nM
MFM-223 [39]
  EC50, CellTiter-Blue viability: 57.4 nM
MDA-MB-436 [40]
  EC50, CellTiter-Blue viability: 51.4 nM
CAL-120 [41]
  EC50, CellTiter-Blue viability: 31.3 nM
HCC1143 [42]
  EC50, CellTiter-Blue viability: 13.6 nM
Hs578T [43]
  EC50, CellTiter-Blue viability: 27.9 nM
BT-474 [44]
  EC50, CellTiter-Blue viability: 47.9 nM
HCC1599 [45]
  EC50, CellTiter-Blue viability: 212 nM
